From patent US9815802B2, “Herbicidally active N-(1-methyltetrazol-5-yl)benzoic acid amides” (BAYER CROPSCIENCE AKTIENGESELLSCHAFT, priority 2014, dated 2017)

How the values were obtained:
Type in all cases: in vivo
[1] = tested on: Stellaria media; assay: Post-emergence herbicidal action against STEME; settings: dosage 5 g/ha
Method: (§1) Post-Emergence Herbicidal Action Against Harmful Plants Seeds of monocotyledonous and dicotyledonous weed and crop plants are laid out in sandy loam in wood-fiber pots, covered with soil and cultivated in a greenhouse under good growth conditions. 2 to 3 weeks after sowing, the test plants are treated at the one-leaf stage. The compounds of the invention, formulated in the form of wettable powders (WP) or as emulsion concentrates (EC), are then sprayed onto the green parts of the plants in the form of an aqueous suspension or emulsion at a water application rate equating to 600 to 800 I/ha, with addition of 0.2% wetting agent. After the test plants have been left to stand in the greenhouse under optimal growth conditions for about 3 weeks, the action of the preparations is assessed visually in comparison to untreated controls (herbicidal action in percent (%): 100% activity=the plants have died, 0% activity=like control plants).

[2] = tested on: Setaria viridis; assay: Post-emergence herbicidal action against SETVI
Method: as §1

[3] = tested on: Echinochloa crus galli; assay: Post-emergence herbicidal action against ECHCG; settings: dosage 80 g/ha
Method: as §1

[4] = tested on: Abutilon theophrasti; assay: Post-emergence herbicidal action against ABUTH; settings: dosage 80 g/ha
Method: as §1

## CCc1ccc(C(=O)Nc2nnnn2C)c(C)c1SOC
[1]
  Activity against STEME: 100%
[2]; dosage 5 g/ha
  Activity against SETVI: 100%

## COSc1c(C)ccc(C(=O)Nc2nnnn2C)c1C [drawing 38]
[3]
  Activity against ECHCG: 100%
[4]
  Activity against ABUTH: 100%
[2]; dosage 80 g/ha
  Activity against SETVI: 100%

## COSc1c(C)ccc(C(=O)Nc2nnnn2C)c1C [drawing 39, reference compound]
[3]
  Activity against ECHCG: 40%
[4]
  Activity against ABUTH: 80%
[2]; dosage 80 g/ha
  Activity against SETVI: 20%

## COSc1c(S(C)(=O)=O)ccc(C(=O)Nc2nnnn2C)c1C [drawing 50, reference compound]
[1]
  Activity against STEME: 80%
[2]; dosage 5 g/ha
  Activity against SETVI: 40%

## COSc1c(C)ccc(C(=O)Nc2nnnn2C)c1[N+](=O)[O-] [drawing 63]
[3]; Table T
  Activity against ECHCG: 20%
[2]; Table T, dosage 80 g/ha
  Activity against SETVI: 0%

## Cc1ccc(C(=O)Nc2nnnn2C)c([N+](=O)[O-])c1S(C)(=O)=O [drawing 66]
[3]; Table U
  Activity against ECHCG: 0%
[2]; Table U, dosage 80 g/ha
  Activity against SETVI: 0%

## COSc1c(C(F)(F)F)ccc(C(=O)Nc2nnnn2C)c1C [reference compound]
[1]
  Activity against STEME: 80%
[2]; dosage 5 g/ha
  Activity against SETVI: 80%
